Experimental data taken from patent publication US20130005749A1, “NOVEL FORMULATION AND TREATMENT METHODS” (The University of Queensland, priority 2011, published 2013).

What was measured:
ulcerative colitis = experiment: Human patient R-LS with ulcerative colitis
Experimental: Because treatment with AZA and 6-MP was not an option, they were treated instead with 6-TG using the conventional therapeutic protocol, namely bolus administration of 40 mg per day (R-LS weighs approximately 60 kg) and 5-aminosalicylic acid.
Again, they were treated with 6-TG using the conventional therapeutic protocol, namely bolus administration of 40 mg per day and balsalazide. […] Maintenance therapy to prevent relapse was again prescribed using a lower dose of balsalazide.
Given their clinical history, the inventors were reluctant to prescribe another bolus dose of 6-TG due to the known hepatotoxic side-effects that could occur.
Accordingly, R-LS was given 60 mg per day 6-TG in a divided dosage (3 separate doses of equal amounts). The doses were given at intervals throughout the day.

[1] = tested on: Winnie (C57Bl/6 Muc2 Winnie/Winnie) mice; experiment: Immunosuppression (venous blood leukocytes) and myelotoxicity in Winnie mice; assay type: in vivo; details: for immunosuppression (reductions in venous blood leukocytes): 11 days
Experimental: (§1) Male or female C57Bl/6 Winnie mice were gavaged twice daily for 11-days in an experiment with three groups (6 animals per group):
(§2) Group 1: 1.25 mg/kg 6TG evening and morning (total 2.5 mg/kg/d, N=6)
(§3) Group 3: 2.5 mg/kg/d 6TG in the morning and vehicle gavage in the afternoon ([…]).
(§4) Male or female C57Bl/6 Winnie mice were gavage once daily for 28-days in an experiment with two groups (6 animals per group):
(§5) Group 1: 0.5 mg/kg 6TG once daily gavage

[2] = tested on: Winnie (C57Bl/6 Muc2 Winnie/Winnie) mice; experiment: SOS in Winnie mice; assay type: in vivo
Experimental: (§6) The total possible VOD score was 240.
as §1, §2, §3, §4, §5

HPRT−/− C57BL/6 mice = experiment: VOD score in HPRT-/- mouse model; assay type: in vivo; details: all dosage levels including 1 and 2.5 mg/kg body weight, gavage each day for 14 days
From the text: as §6

C57BL/6 mice = experiment: Veno-occlusive disease (VOD/SOS) blinded histological score in C57BL/6 mice; details: 10 days
From the text: Veno-occlusive disease (or “VOD”) in each mouse was scored in a blinded fashion based on predetermined scoring criteria for sinusoidal endothelial damage (maximum 60), hepatic central vein damage (maximum 60) and inflammatory cell infiltrates using haematoxylin-eosin sections counterstained with vWF for endothelial cells and F4/80 for macrophages (maximum 120). The total possible VOD score was 240.
VOD was scored using the method described in Example 1.
Two groups of C57BL/6 mice were administered a large bolus dose of 6-TG (2.5 mg/kg body weight/day) either (1) orally (by gavage) or (2) intraperitoneally for a period of 10 days.
VOD in each mouse was then scored using the method described in Example 1.

[3] = tested on: Winnie (C57Bl/6 Muc2 Winnie/Winnie) mice; experiment: Histological colitis scores in Winnie mouse model of spontaneous colitis; assay type: in vivo
Experimental: This experiment usesa mouse model of spontaneous colitis called Winnie(C57Bl/6 Muc2^Winnie/Winnie) due to a single SNP mutation in Muc2 in C57Bl/6 mice. The model resembles ulcerative colitis. The mutation confers an intestinal epithelial cell defect, which causes a Th17 dominant inflammatory response (Heazlewood et al. 2008 and Eri et al. 2011).
as §1, §2
Group 2: vehicle control twice daily (N=6), or
as §3
This experiment uses Winnie(C57Bl/6 Muc2^Winnie/Winnie).
as §4, §5
Group 2: vehicle control (N=6),

acute childhood leukemia = details: cited from earlier work; for prevalence of VOD in patients: acute childhood leukemia cases, Stork et al. 2010
[4] = tested on: inflammatory bowel disease; details: after one year; Ansari et al. 2008; cited from earlier work
[5] = 0.5 mg/kg once daily gavage, 28 days

Q: With `Nc1nc2nc[nH]c2c(=S)[nH]1` [Formulation 6-TG, 2-amino-6,7-dihydro-3H-purine-6-thione] as the compound, how does the “response to the treatment” value (ulcerative colitis; 60 mg per day in 3 separate equal doses, six months (relapse December 2010)) read?
A: The value was “once again effective”.

Q: What about the “response to the treatment” value (ulcerative colitis; bolus 40 mg per day with 5-aminosalicylic acid, after 4 months (2003)) of the same compound?
A: The value was “extremely positive response”.

Q: And the “response to the treatment” value (ulcerative colitis; bolus 40 mg per day with balsalazide, ~5-6 months (relapse 2006))?
A: Its value is “positive response”.

Q: And the Immunosuppression [1, 5]?
A: The Immunosuppression was “mild”.

Q: What about the myelotoxicity [1, 5] of the same compound?
A: Its myelotoxicity is “did not have myelotoxicity”.

Q: What about the “immunosuppression (reductions in venous blood leukocytes)” value ([1]; single full dosing 2.5 mg/kg/d) of the same compound?
A: Its value is “moderate immunosuppression”.

Q: And the “immunosuppression (reductions in venous blood leukocytes)” value ([1]; split dosing 1.25 mg/kg twice daily)?
A: Its value is “moderate immunosuppression”.

Q: And the SOS [2, 5]?
A: The SOS was “did not occur”.

Q: And the SOS ([2]; 2.5 mg/kg/d once daily gavage × 11 days)?
A: Its SOS is “causes SOS”.

Q: What about the SOS ([2]; split 1.25 mg/kg b.d dose, 11 days) of the same compound?
A: Its SOS is “SOS is largely avoided”.

Q: And the VOD score (HPRT−/− C57BL/6 mice)?
A: The VOD score was “VOD was shown to be abrogated”.

Q: What about the VOD (C57BL/6 mice; 2.5 mg/kg body weight/day bolus by oral gavage) of the same compound?
A: The VOD was “exhibited VOD”.

Q: And the VOD (C57BL/6 mice; 2.5 mg/kg body weight/day bolus intraperitoneally)?
A: The VOD was “VOD was not observed”.

Q: And the Histological colitis scores ([3]; 0.5 mg/kg/d once daily gavage, 28 days)?
A: Its Histological colitis scores is “significantly improved spontaneous colitis”.

Q: And the Histological colitis scores ([3]; 1.25 mg/kg twice daily gavage, 11 days)?
A: The Histological colitis scores was “significantly improved spontaneous colitis”.

Q: What about the Histological colitis scores ([3]; 2.5 mg/kg/d gavaged once daily, 11 days) of the same compound?
A: The Histological colitis scores was “significantly improved spontaneous colitis”.

Q: What about the “clinical effectiveness in treating the disease compared with 6-MP” value (acute childhood leukemia; Stork et al. 2010 (and others)) of the same compound?
A: Its value is “equivalent or even more clinically effective”.

Q: What about the “prevalence of VOD in patients” value (acute childhood leukemia) of the same compound?
A: Its value is “high prevalence of VOD”.

Q: For `Cn1cnc([N+](=O)[O-])c1Sc1ncnc2nc[nH]c12` [AZA, 6-(3-methyl-5-nitroimidazol-4-yl)sulfanyl-7H-purine], which adverse reactions (ulcerative colitis; human, in vivo) is on record?
A: The adverse reactions was “life-threatening adverse reactions”.

Q: And the “patients who stop therapy due to side-effects or non-responsiveness” value [4]?
A: The value was “approximately 40%”.

Q: For `O=C(O)c1cc(/N=N/c2ccc(S(=O)(=O)Nc3ccccn3)cc2)ccc1O` [sulfasalazine], which adverse reactions (ulcerative colitis; patient history before 2003) is on record?
A: Its adverse reactions is “life-threatening adverse reactions”.

Q: For `Sc1ncnc2nc[nH]c12` [Formulation 6-MP, 3,7-dihydropurine-6-thione], which adverse reactions (ulcerative colitis; human, in vivo) is on record?
A: The adverse reactions was “life-threatening adverse reactions”.

Q: What about the “patients who stop therapy due to side-effects or non-responsiveness” value [4] of the same compound?
A: Its value is “approximately 40%”.

Q: What about the “prevalence of VOD in patients” value (acute childhood leukemia) of the same compound?
A: Its value is “not observed”.
